pIC50: −log10 of the molar value. Read-outs that look alike come from different tables or passages of the source.
Assays:
PARP1 = PARP1 (Gallus gallus, UniProt P26446); test: PAR ELISA assay; type: cell-based
BRCA2tr/- cells [1] = test: Cell viability assay; type: cell-based, chicken; settings: single agent, compared with PARP1-/- and hTDP1 cells
DT40 hTDP1 cells = settings: no CPT vs CPT (Table 1)
hTDP1 cells = test: Secondary screening cell viability assay; settings: 15 and 20 nM CPT
TDP1-/- cells = test: Secondary screening cell viability assay; settings: 5 and 10 nM CPT
BRCA2tr/- cells [2] = settings: cited from earlier work
[3] = read-out: IC50 Poly (ADP-ribose) lation, PAR ELISA

PARP1, sequence (P26446 whole entry): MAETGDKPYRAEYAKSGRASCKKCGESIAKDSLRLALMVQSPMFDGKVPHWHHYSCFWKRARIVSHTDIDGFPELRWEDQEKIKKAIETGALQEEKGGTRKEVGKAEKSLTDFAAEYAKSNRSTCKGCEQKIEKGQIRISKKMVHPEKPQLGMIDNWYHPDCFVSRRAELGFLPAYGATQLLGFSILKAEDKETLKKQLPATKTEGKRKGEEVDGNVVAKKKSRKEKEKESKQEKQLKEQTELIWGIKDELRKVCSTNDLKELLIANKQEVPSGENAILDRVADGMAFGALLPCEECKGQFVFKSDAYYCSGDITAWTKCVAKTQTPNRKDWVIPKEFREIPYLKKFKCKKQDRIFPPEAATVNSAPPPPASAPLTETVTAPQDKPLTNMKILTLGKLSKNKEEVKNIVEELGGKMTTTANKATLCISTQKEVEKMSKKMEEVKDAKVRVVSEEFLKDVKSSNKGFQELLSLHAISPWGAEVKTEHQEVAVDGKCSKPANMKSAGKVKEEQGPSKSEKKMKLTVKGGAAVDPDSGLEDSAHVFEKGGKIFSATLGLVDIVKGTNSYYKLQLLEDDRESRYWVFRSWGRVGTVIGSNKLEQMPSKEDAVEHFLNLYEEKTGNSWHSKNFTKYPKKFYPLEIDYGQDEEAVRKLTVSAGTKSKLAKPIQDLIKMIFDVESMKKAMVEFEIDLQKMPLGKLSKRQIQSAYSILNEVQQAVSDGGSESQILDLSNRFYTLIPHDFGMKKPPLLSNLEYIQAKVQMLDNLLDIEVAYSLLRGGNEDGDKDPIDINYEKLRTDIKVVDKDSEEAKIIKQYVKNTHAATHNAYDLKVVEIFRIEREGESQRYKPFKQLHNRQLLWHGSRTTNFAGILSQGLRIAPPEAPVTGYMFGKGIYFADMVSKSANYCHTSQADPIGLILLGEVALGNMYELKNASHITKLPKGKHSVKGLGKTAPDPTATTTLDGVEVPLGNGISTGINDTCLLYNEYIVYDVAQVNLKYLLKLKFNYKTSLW

| pIC50 (PARP1; [3]) | Structure (SMILES) | cytotoxic effect in BRCA2tr/- cells (BRCA2tr/- cells [1]) | fold potentiation of cytotoxicity in the presence of CPT (DT40 hTDP1 cells) | potentiating (synergistic) effect with CPT in hTDP1 cells (hTDP1 cells) | potentiating (synergistic) effect with CPT in TDP1-/- cells (TDP1-/- cells) | pIC50 (PARP1) | cytotoxic effect in BRCA2tr/- cells (BRCA2tr/- cells [2]) |
| --- | --- | --- | --- | --- | --- | --- | --- |
| > 7.70 | CC(=O)Nc1ccc2c(c1)[nH]c(=O)c1ccccc12 [Cpd1] | selectively cytotoxic | 166 fold | greatest potentiating effect | without showing any apparent potentiating effect |  |  |
| 5.34 | O=C(Nc1cccc2c(=O)[nH][nH]c(=O)c12)c1ccc([N+](=O)[O-])cc1 [Cpd5] |  |  |  |  |  |  |
|  | C[C@]1(c2nc3c(C(N)=O)cccc3[nH]2)CCCN1 [Veliparib, reference compound] |  | 466 fold |  | lack of synergistic effect | > 7.70 | selectively cytotoxic |

Source: publication PMC4125495 (DNA repair, 2014)
